This note sets out measurements from patent US20140335166A1, “Methods of Making and Using Nano Scale Particles” (priority 2013, published 2014).

The subject of this experiment is Cultured liver cells. The experiment is described as follows: Phosphatidylcholine biosynthesis as measure of cell function in cultured liver cells incubated with ethanol. To be noted: 100 mM ethanol, 24 hours. The format is cell-based. The method, then: As an example of the effectiveness of using the PPC, the following experiments were conducted. Cultured liver cells were incubated for 24 hours with 100 mM ethanol in the presence of (1) water, (2) VEP/EPC (egg phosphatidylcholine), or (3) VEP/PPC. Agent-dependent alterations in cell function were determined by measuring phosphatidylcholine biosynthesis. Similar results were obtained in the three separate preparations of cultured cells, all of which are reflected in the Table 1 set forth below. Control cells are expressed as 100%, meaning full cellular function. A reduction below 100% represents a decrease in cell function.

With `CCO` [Ethanol], the “reduction in cell function from control cells” value is 63%. Further, where the note is “control cells = 100%, VEP/EPC (15 Mm EPC), VEP/PPC (15 Mm VEP and 30 Mm PPC)”, the “% Control ± SEM (phosphatidylcholine biosynthesis, cell function)” value came out at 37 ± 1 %.
